The conditions of this series: 101.33 kPa, Liquid, Falling or rolling sphere viscometry.

± gives the expanded uncertainty stated by the source.

One may read the viscosity as the resistance of a fluid to flow. Consider `COCC[N+]1(C)CCCC1.O=S(=O)([N-]S(=O)(=O)C(F)(F)F)C(F)(F)F`, for which the viscosity turned out to be 54.52 ± 1.1 mPa·s (298.15 K); 36.94 ± 0.8 mPa·s (308.15 K); 26.41 ± 0.57 mPa·s (318.15 K); 18.23 ± 0.39 mPa·s (328.15 K); 14.06 ± 0.3 mPa·s (338.15 K); 11.07 ± 0.24 mPa·s (348.15 K).
For `COCC[N+]1(C)CCCCC1.O=S(=O)([N-]S(=O)(=O)C(F)(F)F)C(F)(F)F`, the viscosity reads like this: (298.15 K) 102.6 ± 3.1 mPa·s; (308.15 K) 63.22 ± 1.4 mPa·s; (318.15 K) 41.92 ± 0.91 mPa·s; (328.15 K) 29.43 ± 0.64 mPa·s; (338.15 K) 21.53 ± 0.46 mPa·s; (348.15 K) 16.32 ± 0.35 mPa·s.
As to `COCC[N+]1(C)CCOCC1.O=S(=O)([N-]S(=O)(=O)C(F)(F)F)C(F)(F)F`, the viscosity by setting is: (298.15 K) 306.1 ± 19 mPa·s; (308.15 K) 155.9 ± 6.4 mPa·s; (318.15 K) 90.68 ± 2.5 mPa·s; (328.15 K) 57.23 ± 1.2 mPa·s; (338.15 K) 38.69 ± 0.84 mPa·s; (348.15 K) 27.54 ± 0.6 mPa·s.

For the origin of these results see the NIST ThermoML archive (doi:10.1016/j.fluid.2012.01.018).
